Source: ChEMBL document CHEMBL1141466, “Potent memapsin 2 (beta-secretase) inhibitors: design, synthesis, protein-ligand X-ray structure, and in vivo evaluation” (Bioorg Med Chem Lett, 2008)

Assays:
Beta-secretase 1 [1] = molecular target: T1, Beta-secretase 1 (Homo sapiens, UniProt P56817)
Description: Binding affinity to recombinant memapsin 2

Beta-secretase 1 [2] = molecular target: T1, Beta-secretase 1; remark: listed apart in the source
Description: Inhibition of memapsin 2 expressed in CHO cells

T1 sequence (P56817 whole entry): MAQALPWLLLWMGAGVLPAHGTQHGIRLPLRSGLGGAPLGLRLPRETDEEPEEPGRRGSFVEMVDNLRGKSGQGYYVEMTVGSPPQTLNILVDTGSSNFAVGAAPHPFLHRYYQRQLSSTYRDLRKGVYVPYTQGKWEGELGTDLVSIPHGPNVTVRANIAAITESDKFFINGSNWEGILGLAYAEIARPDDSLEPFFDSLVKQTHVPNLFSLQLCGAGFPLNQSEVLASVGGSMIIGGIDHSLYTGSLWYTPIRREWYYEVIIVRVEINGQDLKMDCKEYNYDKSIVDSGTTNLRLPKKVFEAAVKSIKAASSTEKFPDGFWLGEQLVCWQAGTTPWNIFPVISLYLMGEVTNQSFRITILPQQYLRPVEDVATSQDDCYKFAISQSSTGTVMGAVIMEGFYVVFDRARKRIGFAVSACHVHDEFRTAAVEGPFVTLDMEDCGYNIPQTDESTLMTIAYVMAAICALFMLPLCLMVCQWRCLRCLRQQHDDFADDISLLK

| Compound | Ki (Beta-secretase 1 [1]) [nM] | IC50 (Beta-secretase 1 [2]) [nM] |
| --- | --- | --- |
| CC(C)NC(=O)[C@@H](NC[C@@H](O)[C@H](Cc1ccccc1)NC(=O)c1cc(C(=O)N[C@H](C)c2ccccc2)cc(N(C)S(C)(=O)=O)c1)C(C)C | 564 |  |
| COc1cccc(CNC[C@@H](O)[C@H](Cc2ccccc2)NC(=O)[C@H](CS(C)(=O)=O)NC(=O)OCc2nc(C)oc2C)c1 | 15000 |  |
| CC(C)NC[C@@H](O)[C@H](Cc1ccccc1)NC(=O)c1cc(C(=O)N[C@H](C)c2ccccc2)cc(N(C)S(C)(=O)=O)c1 | 425 | 1100 |
| C[C@@H](NC(=O)c1cc(C(=O)N[C@@H](Cc2ccccc2)[C@H](O)CNCc2ccc3cc[nH]c3c2)cc(N(C)S(C)(=O)=O)c1)c1ccccc1 | 230 | 620 |
| C[C@@H](NC(=O)c1cc(C(=O)N[C@@H](Cc2ccccc2)[C@H](O)CNCc2ccc3ccn(S(C)(=O)=O)c3c2)cc(N(C)S(C)(=O)=O)c1)c1ccccc1 | 27 | 200 |
| COc1cccc(CNC[C@@H](O)[C@H](CC(C)C)NC(=O)c2cc(C(=O)N[C@H](C)c3ccccc3)cc(N(C)S(C)(=O)=O)c2)c1 | 916 |  |
| Cc1nc(COC(=O)N[C@@H](CS(C)(=O)=O)C(=O)N[C@@H](CC(C)C)[C@@H](O)C[C@@H](C)C(=O)N[C@H](C(=O)NC(C)(C)C)C(C)C)c(C)o1 | 0.12 |  |
| COc1cccc(CNC[C@@H](O)[C@H](Cc2ccccc2)NC(=O)c2cc(C(=O)NCc3nc(C)oc3C)cc(N(C)S(C)(=O)=O)c2)c1 | 552 |  |
| COc1cccc(CNC[C@@H](O)[C@H](Cc2ccccc2)NC(=O)c2cc(C(=O)NC(C)c3nc(C)oc3C)cc(N(C)S(C)(=O)=O)c2)c1 (some centres not stated) | 894 |  |
